Results as given in patent US6683085B2, “Salt form and polymorphs” (Pfizer Inc., priority 2000, dated 2004).
Where a name gives a salt, the structure may show the parent alone.

Columns and labels:
[1] = Moisture sorption at 30° C. and 45% RH; assay type: physicochemical
[2] = tested on: male and female Sprague-Dawley rats; assay: Daily oral administration to rats for 1 month; assay type: in vivo; settings: rat, 30 mg/kg for 1 month
[3] = Solubility of the mesylate salt and free base forms; assay type: physicochemical
[4] = Stability over a wide range of conditions; assay type: physicochemical; settings: e.g. high light intensity
[5] = Hygroscopicity at 90% RH; assay type: physicochemical; settings: for Hygroscopity % (w/w) at 90% RH: Table 4, polymorphic forms of the free base
[6] = Water content of the hydrated form of the free base; assay type: physicochemical
Source text: The water content of the hydrated form of the free base (Form D) at ambient conditions is commonly of the order of 9 to 10% (w/w). This is equivalent to 2.5 to 2.8 moles of water per mole of the free base. […] The first mole was lost below 5% RH the second retained down to 1% RH see FIG. 11. It is likely that extended storage of the hydrated form below about 18% RH would result in dehydration. Furthermore, removal of the crystalline water results in the loss of the crystal lattice, the product being predominantly amorphous. This highlights a potential problem in using the conventional hydrated form in manufacturing a pharmaceutical formulation. Dehydration was observed on thermal analysis as a broad double endotherm at 97/113° C. (See FIG. 8)

## COc1cc2nc(N3CCc4c(cccc4NS(C)(=O)=O)C3)nc(N)c2c(-c2ccccn2)c1OC [Mesylate salt, 4-amino-6,7-dimethoxy-2-(5-methanesulfonamido-1,2,3,4-tetrahydroisoquinol-2-yl)-5-(2-pyridyl)quinazoline mesylate]
[1]; listed as Mesylate salt (mpt 279° C.), mesylate
  Moisture sorption (% w/w) at 30° C. and 45% RH: 0.56 % w/w
[2]
  Adverse effects: no evidence of adverse effects
  Changes linked to the pharmacological activity: induced changes linked to the pharmacological activity of the compound
[3]; 0.9% sodium chloride at 22° C., mesylate
  Solubility: 120 micrograms/ml
[3]; Water at 22° C., mesylate
  Solubility: 880 micrograms/ml
[4]
  Stability: good stability
[5]; 90% RH, Table 1, mesylate salt
  Hygroscopicity % (w/w) at 90% RH: 1.1 % (w/w)
[5]; over a wide range of relative humidity, comparison in words
  Hygroscopicity compared with another form: substantially lower than the free base

## COc1cc2nc(N3CCc4c(cccc4NS(C)(=O)=O)C3)nc(N)c2c(-c2ccccn2)c1OC [Form A, 4-Amino-6,7-dimethoxy-2-(5-methanesulfonamido-1,2,3,4-tetrahydroisoquinol-2-yl)-5-(2-pyridyl)quinazoline]
[1]; listed as Free base (mpt 198° C.)
  Moisture sorption (% w/w) at 30° C. and 45% RH: 1.39 % w/w
[3]; 0.9% sodium chloride at 22° C., listed as Free base (mpt 198° C.)
  Solubility: 36 micrograms/ml
[3]; Water at 22° C., listed as Free base (mpt 198° C.)
  Solubility: 420 micrograms/ml
[5]; 90% RH
  Hygroscopity % (w/w) at 90% RH: 2.2 % (w/w)

## COc1cc2nc(N3CCc4c(cccc4NS(C)(=O)=O)C3)nc(N)c2c(-c2ccccn2)c1OC [Form E, 4-Amino-6,7-dimethoxy-2-(5-methanesulfonamido-1,2,3,4-tetrahydroisoquinol-2-yl)-5-(2-pyridyl)quinazoline]
[5]; 90% RH
  Hygroscopity % (w/w) at 90% RH: 0.045 % (w/w)

## COc1cc2nc(N3CCc4c(cccc4NS(C)(=O)=O)C3)nc(N)c2c(-c2ccccn2)c1OC [Form D, 4-Amino-6,7-dimethoxy-2-(5-methanesulfonamido-1,2,3,4-tetrahydroisoquinol-2-yl)-5-(2-pyridyl)quinazoline, reference compound]
[1]; listed as Hydrated form of free base
  Moisture sorption (% w/w) at 30° C. and 45% RH: 11.24 % w/w
[3]; 0.9% sodium chloride at 22° C., listed as Hydrated form of free base
  Solubility: 4 micrograms/ml
[3]; Water at 22° C., listed as Hydrated form of free base
  Solubility: 12 micrograms/ml
[5]; 90% RH
  Hygroscopity % (w/w) at 90% RH: 12.8 % (w/w)
[6]; 90% RH
  Water content: 12.8 % (w/w)
  Water content, moles of water: 3.6 moles of water
[6]; ambient conditions
  Water content: 9 to 10 % (w/w)
  Water content, moles of water per mole of the free base: 2.5 to 2.8 moles of water per mole of the free base

## COc1cc2nc(N3CCc4c(cccc4NS(C)(=O)=O)C3)nc(N)c2c(-c2ccccn2)c1OC [Form B, 4-Amino-6,7-dimethoxy-2-(5-methanesulfonamido-1,2,3,4-tetrahydroisoquinol-2-yl)-5-(2-pyridyl)quinazoline]
[5]; 90% RH
  Hygroscopity % (w/w) at 90% RH: 0.27 % (w/w)
